The record followed here is ChEMBL document CHEMBL1136645, “The identification of clinical candidate SB-480848: a potent inhibitor of lipoprotein-associated phospholipase A2” (Bioorg Med Chem Lett, 2003).

Molecules are shown by their SMILES.

The target in one data set is Cytochrome P450 3A4 (Homo sapiens, UniProt P08684). As to the kind of experiment: Inhibitory activity against CYP450 3A4 isozyme. It counts as ADME.
For the next data set, the target named is Cytochrome P450 2D6 (Homo sapiens, UniProt P10635). As to the kind of experiment: Inhibitory activity against Cytochrome P450 2D6. It counts as ADME.
Data set [1] addresses T1, Platelet-activating factor acetylhydrolase (Homo sapiens, UniProt Q13093).
T1 sequence (Q13093 whole entry): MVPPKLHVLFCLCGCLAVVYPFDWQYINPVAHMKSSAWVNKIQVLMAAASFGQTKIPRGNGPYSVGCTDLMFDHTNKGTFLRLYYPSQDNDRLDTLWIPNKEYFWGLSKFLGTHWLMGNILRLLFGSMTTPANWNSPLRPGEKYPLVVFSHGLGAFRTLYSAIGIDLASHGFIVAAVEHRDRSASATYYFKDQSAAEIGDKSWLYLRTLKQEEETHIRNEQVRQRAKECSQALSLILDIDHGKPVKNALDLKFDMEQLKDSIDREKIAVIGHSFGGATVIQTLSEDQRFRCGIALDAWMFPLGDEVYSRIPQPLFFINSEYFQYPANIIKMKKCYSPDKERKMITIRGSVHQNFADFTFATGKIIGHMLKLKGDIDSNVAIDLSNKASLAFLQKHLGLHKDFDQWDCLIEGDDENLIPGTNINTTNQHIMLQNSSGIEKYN
As to the kind of experiment: Inhibitory activity against recombinant human Lp-PLA2.

Data set [2] can be described thus: Permeability was determined. As to conditions: not told; read-out: Permeability (converted). It counts as ADME.
Data set [3] is described as follows: Permeability in plasma. It counts as ADME, cell-free. As to conditions: not told; read-out: Permeability (converted).
Data set [4] is described as follows: Oral bioavailability in dog. It counts as ADME, organism-based, Canis lupus familiaris. As to conditions: in vivo.
Data set [5] can be described thus: Oral bioavailability in fed rat. The note with it: in vivo. It counts as ADME, organism-based.
For data set [6], the species on record is Homo sapiens. Briefly: Inhibitory concentration against lyso-PtdCho production in human LDL.
The species entered for data set [7] is Homo sapiens. Briefly: Inhibitory concentration against monocyte chemotaxis.
A short description of data set [8]: Oral bioavailability in fasted rat. The note with it: in vivo. It counts as ADME, organism-based.

Cytochrome P450 3A4, sequence (P08684 whole entry): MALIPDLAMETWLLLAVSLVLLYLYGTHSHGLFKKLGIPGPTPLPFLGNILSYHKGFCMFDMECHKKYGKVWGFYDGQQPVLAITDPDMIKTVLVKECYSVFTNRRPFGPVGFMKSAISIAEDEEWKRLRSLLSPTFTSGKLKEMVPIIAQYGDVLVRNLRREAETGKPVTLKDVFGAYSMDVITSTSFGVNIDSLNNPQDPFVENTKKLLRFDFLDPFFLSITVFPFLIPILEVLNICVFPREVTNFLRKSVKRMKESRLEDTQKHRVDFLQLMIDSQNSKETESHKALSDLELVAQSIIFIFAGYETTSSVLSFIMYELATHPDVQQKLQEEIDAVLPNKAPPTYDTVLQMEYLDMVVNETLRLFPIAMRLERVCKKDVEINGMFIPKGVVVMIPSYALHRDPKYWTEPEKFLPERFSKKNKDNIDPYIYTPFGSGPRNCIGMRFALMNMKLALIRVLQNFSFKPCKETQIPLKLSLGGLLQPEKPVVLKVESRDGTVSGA
Cytochrome P450 2D6, sequence (P10635 whole entry): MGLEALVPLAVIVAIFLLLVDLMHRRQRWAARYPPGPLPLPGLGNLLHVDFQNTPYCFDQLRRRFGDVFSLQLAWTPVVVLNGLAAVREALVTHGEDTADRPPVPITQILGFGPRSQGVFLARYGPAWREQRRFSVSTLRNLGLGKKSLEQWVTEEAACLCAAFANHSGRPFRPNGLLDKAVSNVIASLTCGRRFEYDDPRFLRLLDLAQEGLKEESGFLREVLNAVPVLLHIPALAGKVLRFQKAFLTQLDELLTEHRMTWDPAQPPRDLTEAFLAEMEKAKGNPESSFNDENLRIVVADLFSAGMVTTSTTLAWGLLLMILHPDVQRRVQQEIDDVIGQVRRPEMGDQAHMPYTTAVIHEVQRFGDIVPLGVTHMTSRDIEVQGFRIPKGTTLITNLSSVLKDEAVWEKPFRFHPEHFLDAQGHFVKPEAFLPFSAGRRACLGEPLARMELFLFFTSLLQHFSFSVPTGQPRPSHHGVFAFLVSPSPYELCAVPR

In the case of `CCN(CC)CCN(Cc1ccc(-c2ccc(Cl)cc2)cc1)C(=O)Cn1c(SCc2ccc(F)cc2)nc(=O)c2c1CCCC2`, the half-maximal inhibitory concentration (IC50) at Cytochrome P450 3A4 was 5 µM; on Cytochrome P450 2D6 it was 6 µM; in data set [1], 0.00025 µM.

For the compound `CCN(CC)CCN(Cc1ccc(-c2ccc(C(F)(F)F)cc2)cc1)C(=O)Cn1cc(Br)c(=O)nc1SCc1ccc(F)cc1`, the IC50 against Cytochrome P450 3A4 was 39 µM; against Cytochrome P450 2D6, 56 µM; in data set [1], 0.001 µM. Further, the Papp in [2] is 25 ×10⁻⁶ cm/s.

Take `CCN(CC)CCN(Cc1ccc(-c2ccc(Cl)cc2)cc1)C(=O)Cn1c(SCc2ccc(F)cc2)nc(=O)c2c1CCC2`: the Papp in [3] was 38.9 ×10⁻⁶ cm/s. Moreover, the results for the IC50 (at Cytochrome P450 3A4; against Cytochrome P450 2D6; in data set [1]) were 18 µM, 25 µM and 0.0004 µM, respectively.

With `CCN(CC)CCN(Cc1ccc(-c2ccc(C(F)(F)F)cc2)cc1)C(=O)Cn1c(SCc2ccc(F)cc2)nc(=O)c2c1CCC2` [DARAPLADIB], the bioavailability was 28% in data set [4], 11% in [5] and roughly 21% in data set [8]. Moreover, the Papp in data set [3] is 27.8 ×10⁻⁶ cm/s. Besides, the IC50 turned out to be 26 µM at Cytochrome P450 2D6, 4 µM in the data set listed under Homo sapiens [6] and 4 µM in the data set listed under Homo sapiens [7].

Consider `CCN(CC)CCN(Cc1ccc(-c2ccc(C(F)(F)F)cc2)cc1)C(=O)Cn1cc(CO)c(=O)nc1SCc1ccc(F)cc1`, for which the IC50 in data set [1] came to 0.0015 µM. In addition, the Papp in data set [2] was 0.556 ×10⁻⁶ cm/s.

Regarding `CCN(CC)CCN(Cc1ccc(-c2ccc(Cl)cc2)cc1)C(=O)Cn1cc(C)c(=O)nc1SCc1ccc(F)cc1`, the IC50 on Cytochrome P450 3A4 was determined as 13 µM; against Cytochrome P450 2D6, 15 µM. Besides, the Papp in [2] was 27.8 ×10⁻⁶ cm/s.

For `CCN(CC)CCN(Cc1ccc(-c2ccc(C(F)(F)F)cc2)cc1)C(=O)Cn1cc(C)c(=O)nc1SCc1ccc(F)cc1`, the IC50 is 17 µM against Cytochrome P450 3A4, 39 µM against Cytochrome P450 2D6 and 0.001 µM in data set [1]. The Papp in data set [2] is 22.2 ×10⁻⁶ cm/s.

As to `CCN(CC)CCN(Cc1ccc(-c2ccc(C(F)(F)F)cc2)cc1)C(=O)Cn1cc(CCNC(C)=O)c(=O)nc1SCc1ccc(F)cc1`, the Papp in data set [3] was 0.833 ×10⁻⁶ cm/s. Further, the IC50 in data set [1] turned out to be 0.006 µM.

Turning to `CCN(CC)CCN(Cc1ccc(-c2ccc(C(F)(F)F)cc2)cc1)C(=O)Cn1cc(CCO)c(=O)nc1SCc1ccc(F)cc1`, in data set [2], the Papp is 0.833 ×10⁻⁶ cm/s.

With `CCN(CC)CCN(Cc1ccc(-c2ccc(C(F)(F)F)cc2)cc1)C(=O)Cn1c(SCc2ccc(F)cc2)nc(=O)c(C)c1C`, the Papp in data set [3] was 8.33 ×10⁻⁶ cm/s. In addition, the IC50 worked out at 22 µM against Cytochrome P450 3A4 and 24 µM on Cytochrome P450 2D6.

On to `CCN(CC)CCN(Cc1ccc(-c2ccc(C(F)(F)F)cc2)cc1)C(=O)Cn1c(SCc2ccc(F)cc2)nc(=O)c2c1CCCC2`, for which the Papp in data set [3] is 16.7 ×10⁻⁶ cm/s. The IC50 stood at 10 µM on Cytochrome P450 3A4, 9 µM against Cytochrome P450 2D6 and 0.0001 µM in data set [1].

Take `CCN(CC)CCN(Cc1ccc(-c2ccc(C(F)(F)F)cc2)cc1)C(=O)Cn1cc([S+](C)[O-])c(=O)nc1SCc1ccc(F)cc1` (stereo unspecified): the IC50 in data set [1] was 0.0008 µM. In addition, the Papp in data set [2] is 1.67 ×10⁻⁶ cm/s.

For `CCN(CC)CCN(Cc1ccc(-c2ccc(C(F)(F)F)cc2)cc1)C(=O)Cn1cc(CCNS(C)(=O)=O)c(=O)nc1SCc1ccc(F)cc1`, the Papp in [3] was 1.39 ×10⁻⁶ cm/s. In addition, in data set [1], the half-maximal inhibitory concentration (IC50) was found to be 0.001 µM.

For `CCCc1cn(CC(=O)N(CCN(CC)CC)Cc2ccc(-c3ccc(C(F)(F)F)cc3)cc2)c(SCc2ccc(F)cc2)nc1=O`, the IC50 is 5 µM against Cytochrome P450 3A4, 22 µM against Cytochrome P450 2D6 and 0.0008 µM in data set [1]. The Papp in [2] is 36.1 ×10⁻⁶ cm/s.

As for `CCc1cn(CC(=O)N(CCN(CC)CC)Cc2ccc(-c3ccc(C(F)(F)F)cc3)cc2)c(SCc2ccc(F)cc2)nc1=O`, the results for the half-maximal inhibitory concentration (IC50) (against Cytochrome P450 3A4; against Cytochrome P450 2D6; in [1]) were 11 µM, 24 µM and 0.0004 µM, respectively. The Papp in [2] was 27.8 ×10⁻⁶ cm/s.

Turning to `CCN(CC)CCN(Cc1ccc(-c2ccc(C(F)(F)F)cc2)cc1)C(=O)Cn1cc(CCN)c(=O)nc1SCc1ccc(F)cc1`, the IC50 in data set [1] turned out to be 0.038 µM.

For `CCN(CC)CCN(Cc1ccc(-c2ccc(C(F)(F)F)cc2)cc1)C(=O)Cn1cc(Cc2cnn(C)c2)c(=O)nc1SCc1ccc(F)cc1`, the bioavailability in [5] amounted to 2%.

Regarding `CCN(CC)CCN(Cc1ccc(-c2ccc(C(F)(F)F)cc2)cc1)C(=O)Cn1cc(SC)c(=O)nc1SCc1ccc(F)cc1`, the IC50 amounted to 15 µM against Cytochrome P450 3A4, 39 µM on Cytochrome P450 2D6 and 0.0008 µM in data set [1]. In addition, in data set [2], the Papp was 8.33 ×10⁻⁶ cm/s.

Take `CCc1cn(CC(=O)N(CCN(CC)CC)Cc2ccc(-c3ccc(Cl)cc3)cc2)c(SCc2ccc(F)cc2)nc1=O`: the values for the IC50 at Cytochrome P450 3A4 and on Cytochrome P450 2D6 were 7 µM and 14 µM, respectively. Further, the Papp in [2] is 33.3 ×10⁻⁶ cm/s.

For the compound `CCN(CC)CCN(Cc1ccc(-c2ccc(C(F)(F)F)cc2)cc1)C(=O)Cn1c(C)cc(=O)nc1SCc1ccc(F)cc1`, the Papp in data set [3] is 13.9 ×10⁻⁶ cm/s. The IC50 was determined as 22 µM on Cytochrome P450 3A4 and 47 µM at Cytochrome P450 2D6.

As to `CCN(CC)CCN(Cc1ccc(-c2ccc(C(F)(F)F)cc2)cc1)C(=O)Cn1cc(OC)c(=O)nc1SCc1ccc(F)cc1`, the Papp in data set [2] was 6.94 ×10⁻⁶ cm/s.

For `CCN(CC)CCN(Cc1ccc(-c2ccc(C(F)(F)F)cc2)cc1)C(=O)Cn1cc(Cl)c(=O)nc1SCc1ccc(F)cc1`, the IC50 was 29 µM on Cytochrome P450 3A4, 83 µM on Cytochrome P450 2D6 and 0.003 µM in [1]. In addition, the Papp in data set [2] was 30.6 ×10⁻⁶ cm/s.
